{"source": "patent US20170105971A1", "about": "“METHODS AND COMPOUNDS FOR THE TREATMENT OF BONE LOSS AND/OR PAIN” (priority 2015, published 2017)", "key": {"[1]": {"system": "mice", "test": "ACPA-induced pain (mechanical hypersensitivity) in mice, von Frey filaments", "type": "in vivo, mouse", "settings": "5 mg/kg s.c. once daily; C03 2 mg i.v.; p<0.01", "method": "Starting day 1, the PAD inhibitor 2-2-Chloroacetamide (C0267, Sigma Aldrich) was injected subcutaneously s.c. (in 100 μl saline with 5% DMSO) once daily (5 mg/kg/day) for 10 days.\nWithdrawal thresholds of the hind paws were assessed using von Frey filaments as previously described (Bas, D. B. et al., 2012). In brief, the mice were habituated in individual compartments on top of a wire-mesh surface (Ugo Basile) prior to experiment. On test days, mice were given time to acclimatize and then optiHair filaments (Marstock OptiHair) of increasing buckling force (0.5, 1, 2, 4, 8, 16, and 32 mN) were applied to the plantar surface of the paw until the filament bent slightly. A brisk withdrawal of the paw within 2-3 seconds was noted as a positive response. A 50% withdrawal threshold was calculated using the Dixon up-down method (Chaplan, S. R., et al., 1994) and results from both hind paws were averaged and presented as % of baseline values."}, "[2]": {"system": "Mφ-derived OCs", "test": "Mφ-derived osteoclast culture, TRAP staining (OC numbers)", "type": "cell-based, human", "settings": "for unstimulated OC differentiation (OC numbers): RANKL and M-CSF, early PAD inhibition (at initiation of OC culture)"}, "[3]": {"system": "iDC-derived OCs", "test": "iDC-derived osteoclast culture, TRAP staining (OC numbers)", "type": "cell-based, human", "settings": "RANKL and M-CSF", "source_text": "(§1) The medium was exchanged every three days.\n(§2) IL-8 was neutralized in the cell supernatants using an anti-IL-8/CXCL8 neutralizing antibody (clone MAB208, R&D systems, UK). PAD activity was inhibited using a pan-PAD inhibitor Cl-amidine (Cayman chemical, Michigan, USA), either at the initiation of the OC cultures or three days before the end of culturing."}, "[4]": {"system": "antibody-mediated arthritis", "settings": "Willis et al.; cited from earlier work"}, "[5]": {"system": "ACPA-stimulated OCs", "test": "ACPA-stimulated osteoclastogenesis with inhibitor, TRAP staining", "type": "cell-based, human", "source_text": "as §1, §2"}, "[6]": {"system": "citrullinated targets in mature OCs", "test": "immunohistochemistry of citrullinated targets in mature OCs with PAD inhibitor", "type": "cell-based, human", "settings": "inhibitor added from the beginning of the cultures; mB02 staining", "method": "Murinized monoclonal IgG2a ACPAs (D10, B02, C07) and control antibody (E02) were used to investigate the presence of citrullinated proteins during OC maturation. A rabbit polyclonal anti-PAD2 (Cosmo Bio, Tokyo, Japan) and a monoclonal mouse anti-PADI4 (Abcam, Cambridge, UK) antibody were used to investigate the cellular expression of PAD enzymes during OC maturation. Mφ- and iDC-derived OCs were cultured in 8-well glass chamber slides.\nCells at different stages of differentiation were fixed with 2% (vol/vol) formaldehyde (Sigma-Aldrich, Stockholm, Sweden) at 4° C. and stored at −70° C. until use. Following blocking of endogenous peroxidase and avidin-biotin activity, the slides were incubated with primary monoclonal antibodies. HRP conjugated anti-mouse antibody was used as a secondary antibody and developed with 3,3-diaminobenzidene (DAB) for 7 minutes. The slides were counterstained with Mayer's hematoxylin, dehydrated and permanently mounted and viewed using a light microscope (Reichert Polyvar 2 type 302001, Leica)."}, "[7]": {"system": "RA-derived synovial fibroblasts", "test": "LDH cytotoxicity assay in synovial fibroblast supernatants", "type": "cell-based, human", "settings": "PADi at similar doses as in OC cultures", "method": "(§3) Synovial fibroblasts were isolated from the synovial tissue of RA patients by enzymatic digestion. The cells were growth at 37° C. in 5% CO2 in Dulbecco's modified Eagle medium (DMEM, Sigma-Aldrich, Stockholm, Sweden) with 10% (v/v) heat-inactivated fatal cow serum (FCS, Sigma-Aldrich, Stockholm, Sweden), 100 U/ml penicillin, 100 μg/ml streptomycin and L-glutamine. The cells at passages 4-8 were used throughout this study. Twenty four-well plates were pre-coated with collagen (50 μg/ml), followed by 1 hour of blocking with 3% BSA (Sigma). A sufficient number of SFs were grown to 80-90% confluence and serum starved for 1-2 hours. The scratches were then made using a P-200 pipette tip. The floating cells were removed by washing with PBS. The cells were incubated with or without PAD inhibitors at the indicated concentration for 48 hours. Light microscope images were taken immediately at 0 and 5 hours after scratching. The images were analyzed using NIH ImageJ. The closure areas were normalized to medium control, and these values represent the migration index.\n(§4) The LDH levels in the cell-free culture supernatants were measured using an LDH cytotoxicity assay kit (Roche Diagnostics Scandinavia AB, Bromma, Sweden) according to the manufacturer's instructions."}, "[8]": {"system": "RA-derived synovial fibroblasts", "test": "synovial fibroblast in vitro scratch assay (migration index)", "type": "cell-based, human", "settings": "PADi at similar doses as in OC cultures", "method": "as §3"}, "[9]": {"system": "collagen-induced arthritis", "settings": "Willis et al., cited from earlier work"}, "[10]": {"system": "ACPA-stimulated OCs", "test": "ACPA-stimulated OC calcium phosphate resorption with inhibitor", "type": "cell-based, human", "settings": "PADi added from the beginning of the OC cultures", "source_text": "as §1, §2"}, "[11]": {"system": "OCs", "test": "LDH cytotoxicity assay in OC culture supernatants", "type": "cell-based, human", "settings": "OC cultures with PAD inhibitor", "method": "as §4"}, "[12]": {"settings": "mouse; cited from earlier work"}, "[13]": {"settings": "rat; cited from earlier work"}, "[14]": {"system": "human neutrophils", "settings": "cited from earlier work"}, "[15]": {"system": "mouse neutrophils", "settings": "cited from earlier work"}, "[16]": {"biological_target": "T1, PAD4 (Homo sapiens, UniProt Q9UM07)", "design": "endogenous in cells; host or cells: human neutrophils", "settings": "cited from earlier work"}, "[17]": {"biological_target": "T1, PAD4", "settings": "cited from earlier work"}, "[18]": {"system": "Balb/c mice", "test": "ACPA-induced systemic bone loss in mice, micro-CT of tibia", "type": "in vivo, mouse", "settings": "s.c. twice daily 30 mg/kg/day for 6 days from day 6", "method": "Animal experiments were conducted using adult male Balb/c (Harlan) 15 weeks of age. Mice were housed in standard cages (3-5 per cage) in a climate controlled environment maintaining a 12-hour light/dark cycle with access to food and water ad libitum. All experiments were approved by the local ethics committee for animal experiments in Sweden. […] Starting day 6, the CXCR2 antagonist reparixin (L-lysin salt, HY-15252, MedChem Express) was injected subcutaneously (s.c. in 100 μl saline) twice daily (30 mg/kg/day) for 6 days. At the end of the study, mice were anesthetized using 4% isoflurane, decapitated and left hind leg removed and post-fixed in 4% PFA until further analysis.\nBone structure was analyzed using a SkyScan 1176 micro-CT (Bruker) with a voxel size of 9 μm. The scanning was conducted at 50 kV/480 ρA with a 0.2 mm aluminum filter. The exposure time was 900 ms. The x-ray projections were obtained at 0.4° intervals with a scanning angular rotation of 180°. The projection images were reconstructed into 3-dimensional images using NRecon software (version 1.6.9.8; Bruker) and analyzed using CTVox software (version 2.7.0; Bruker). Trabecular bone in tibia located 644 μm from the proximal growth plate and extending 100.5 μm was analysed regarding BMD and 3D analysis and a volume of cortical bone in tibia mesasuring 617 μm in length, located in the distal tibia was measured for TMD, using CTAnalyzer software (version 1.14.4.1; Bruker). The 3D structures of each joint were blindly assessed by two observers (T.J. and M.M.)."}, "[19]": {"biological_target": "T1, PAD4", "settings": "cited from earlier work", "remark": "listed apart in the source"}, "[20]": {"settings": "early PAD inhibition, doses as low as 0.2 μM"}}, "note": "Entries after “also recorded” stand apart in the source; their conditions may differ. Read-outs that look alike come from different tables or passages of the source."}
{"compound": "NC(=O)CCl", "note": "[2-Chloroacetamide (2CA), 2-Chloroacetamide]", "values": [{"measurement": "pain (mechanical hypersensitivity) induced by ACPA antibody C03", "setting": "[1]", "result": "prevents"}]}
{"compound": "N=C(CCl)NCCC[C@H](NC(=O)c1ccccc1)C(N)=O", "note": "[Cl-amidine, N-α-benzoyl-N5-(2-chloro-1-iminoethyl)-L-Orn amide]", "values": [{"measurement": "unstimulated OC differentiation (OC numbers)", "setting": "[2]", "result": "dose-dependent inhibition; also recorded: dose-dependently inhibited"}, {"measurement": "unstimulated OC differentiation (OC numbers)", "setting": "[2]; listed as PADi", "result": "affects both unstimulated and ACPA-mediate osteoclastogenesis"}, {"measurement": "unstimulated differentiation of OCs", "setting": "[2]; [20]", "result": "no longer able to affect"}, {"measurement": "OC differentiation from iDC", "setting": "[3]", "result": "dose-dependent inhibition"}, {"measurement": "effect on antibody-mediated arthritis", "setting": "[4]", "result": "no effect"}, {"measurement": "ACPA-mediated osteoclastogenesis (OC activation)", "setting": "[5]; PADi added from the beginning of the cultures", "result": "not able to promote OCs activation; also recorded: affects both unstimulated and ACPA-mediate osteoclastogenesis; also recorded: prevented"}, {"measurement": "ACPA-mediated osteoclastogenesis", "setting": "[5]; [20]", "result": "still able to inhibit; also recorded: inhibits"}, {"measurement": "ACPA-mediated osteoclastogenesis", "setting": "[5]; late PAD inhibition (three days before ending the OC cultures), doses as high as 20 μM", "result": "affects only ACPA-mediated osteoclastogenesis"}, {"measurement": "staining intensity of citrullinated targets in OCs after PAD inhibitor treatment", "setting": "[6]", "result": "markedly diminished"}, {"measurement": "fibroblast survival (LDH assay)", "setting": "[7]", "result": "no changes; also recorded: does not affect"}, {"measurement": "fibroblast migration (migration index)", "setting": "[8]", "result": "no changes; also recorded: does not affect"}, {"measurement": "disease activity in collagen-induced arthritis", "setting": "[9]", "result": "decreases disease activity"}, {"measurement": "bone damage in collagen-induced arthritis", "setting": "[9]; in the context of lower synovial inflammation", "result": "lower bone damage"}, {"measurement": "ACPA-induced calcium phosphate resorption", "setting": "[10]", "result": "prevented"}, {"measurement": "cell death, LDH release in the supernatants", "setting": "[11]", "result": "without inducing cell death; also recorded: without any cytotoxic effect"}]}
{"compound": "COc1cc(C(=O)N2CC[C@@H](O)[C@@H](N)C2)cc2nc(-c3cc4ccccc4n3CC3CC3)n(C)c12", "note": "[GSK484, [(3S,4R)-3-amino-4-hydroxy-1-piperidinyl][2-[1-(cyclopropylmethyl)-1H-indol-2-yl]-7-methoxy-1-methyl-1H-benzimidazol-5-yl]-methanone]", "values": [{"measurement": "pharmacokinetic profile", "setting": "[12]", "result": "favorable"}, {"measurement": "pharmacokinetic profile", "setting": "[13]", "result": "favorable"}, {"measurement": "formation of neutrophil extracellular traps", "setting": "[14]", "result": "inhibits"}, {"measurement": "formation of neutrophil extracellular traps", "setting": "[15]", "result": "inhibits"}, {"measurement": "citrullination of PAD4 target proteins in human neutrophils", "setting": "[16]", "result": "blocks"}]}
{"compound": "Cn1c(-c2nc3cc(C(=O)N4CCCC(N)C4)ccc3n2C)cc2ccccc21", "note": "(stereo not drawn) [GSK-121, (3-amino-1-piperidinyl)[1-methyl-2-(1-methyl-1H-indol-2-yl)-1H-benzimidazol-5-yl]-methanone, 2,2,2-trifluoroacetate]", "values": [{"measurement": "IC50", "setting": "[17]; functional assay, read-out: IC50, inhibition of citrullination of PAD4 target proteins", "result": 3200, "unit": "nM"}]}
{"compound": "CC(C)Cc1ccc([C@@H](C)C(=O)NS(C)(=O)=O)cc1", "note": "[reparixin]", "values": [{"measurement": "ACPA-induced change of bone volume fraction", "setting": "[18]", "result": "reversed"}, {"measurement": "ACPA-induced change of trabecular bone mineral density (BMD)", "setting": "[18]", "result": "reversed"}, {"measurement": "ACPA-induced change of trabecular number", "setting": "[18]", "result": "reversed"}]}
{"compound": "(3-amino-1-piperidinyl)[1-methyl-2-(1-methyl-1H-indol-2-yl)-1H-benzimidazol-5-yl]-methanone, 2,2,2-trifluoroacetate [GSK199]", "values": [{"measurement": "IC50", "setting": "[19]; binds to the low-calcium form of the enzyme", "result": 200, "unit": "nM"}, {"measurement": "selectivity for PAD4 over PAD1-3", "setting": "[19]", "result": "selective for PAD4 over PAD1-3"}, {"measurement": "inhibition of citrullination of PAD4 target proteins", "setting": "[17]", "result": "can inhibit"}, {"measurement": "formation of neutrophil extracellular traps", "setting": "[15]", "result": "diminish"}]}
{"compound": "adalimumab", "values": [{"measurement": "effect of ACPAs on osteoclastogenesis", "setting": "[5]; antibody concentrations as high as 10 μg/ml", "result": "No such effects"}]}
